# Biological target: FAS (Homo sapiens, UniProt P49327)
# Experiment: FAS assay (Assay #1: residual NADPH detection, or Assay #2: CoA detection with thio-reactive coumarin dye)
# Type: biochemical
# Conditions: average IC50, each compound tested two or more times; FAS activity measured through one of the two assays
# Method: FAS Activity was Measured Through One of the Two Following Assays.
# Inhibition of FAS activity can be measured based on the detection of residual NADPH substrate after the FAS assay is quenched. This assay is run as a 10 μL endpoint assay in 384-well format, where the reaction contains 20 μM malonyl-CoA, 2 μM acetyl-CoA, 30 μM NADPH and 40 nM FAS in 50 mM sodium phosphate, pH 7.0. The assay is run by sequentially dispensing 5 ul of a malonyl-CoA solution, then enzyme solution (containing the acetyl-CoA, and NADPH) into a black, low volume assay plate (Greiner 784076) pre-dispensed with […] compound solutions in DMSO. The reaction is incubated at ambient temperature for 60 minutes, then quenched with 5 μL of a developing solution composed of 90 μM resazurin, 0.3 IU/ml diaphorase in 50 mM sodium phosphate, pH 7.0. The developed reaction is read on a Molecular Devices Analyst or Acquest (or equivalent) plate reader using a 530 nm excitation wavelength filter, a 580 nm emission filter, and 561 nm dichroic filter. The test compounds are prepared in neat DMSO at a concentration of 10 mM. For inhibition curves, compounds are diluted using a three fold serial dilution and tested at 11 concentrations (e.g. 25 μM-0.42 nM). Curves are analysed using ActivityBase and XLfit, and results are expressed as pIC50 values.
# Inhibition of FAS can also be quantified based on the detection of the CoA products with a thio-reactive coumarin dye. This assay is run as a 10 μL endpoint assay in 384-well format, where the reaction contains 20 μM malonyl-CoA, 20 μM acetyl-CoA, 40 μM NADPH and 2 nM FAS in 50 mM sodium phosphate, pH 7.0, and 0.04% Tween-20. The assay is run by adding 5 μL enzyme solution to a black, low volume assay plate (Greiner 784076) pre-dispensed with 100 nl compound solutions in DMSO. After 30 minutes, 5 μL substrate is added, and the reaction incubated at ambient temperature for an additional 60 minutes. The reaction is then quenched with 10 μL of 6M guanidine-HCl containing 50 μM CPM (7-diethylamino-3-(4′-maleimidylphenyl)-4-methylcoumarin (CPM; thio-reactive dye), and incubated for 30 minutes. The plate is read on an Envision (PerkinElmer) or equivalent plate reader using a 380 nm excitation wavelength filter, and a 486 nm emission filter. Data fitting and compound preparations are done as described above.
# FAS, sequence (P49327 whole entry): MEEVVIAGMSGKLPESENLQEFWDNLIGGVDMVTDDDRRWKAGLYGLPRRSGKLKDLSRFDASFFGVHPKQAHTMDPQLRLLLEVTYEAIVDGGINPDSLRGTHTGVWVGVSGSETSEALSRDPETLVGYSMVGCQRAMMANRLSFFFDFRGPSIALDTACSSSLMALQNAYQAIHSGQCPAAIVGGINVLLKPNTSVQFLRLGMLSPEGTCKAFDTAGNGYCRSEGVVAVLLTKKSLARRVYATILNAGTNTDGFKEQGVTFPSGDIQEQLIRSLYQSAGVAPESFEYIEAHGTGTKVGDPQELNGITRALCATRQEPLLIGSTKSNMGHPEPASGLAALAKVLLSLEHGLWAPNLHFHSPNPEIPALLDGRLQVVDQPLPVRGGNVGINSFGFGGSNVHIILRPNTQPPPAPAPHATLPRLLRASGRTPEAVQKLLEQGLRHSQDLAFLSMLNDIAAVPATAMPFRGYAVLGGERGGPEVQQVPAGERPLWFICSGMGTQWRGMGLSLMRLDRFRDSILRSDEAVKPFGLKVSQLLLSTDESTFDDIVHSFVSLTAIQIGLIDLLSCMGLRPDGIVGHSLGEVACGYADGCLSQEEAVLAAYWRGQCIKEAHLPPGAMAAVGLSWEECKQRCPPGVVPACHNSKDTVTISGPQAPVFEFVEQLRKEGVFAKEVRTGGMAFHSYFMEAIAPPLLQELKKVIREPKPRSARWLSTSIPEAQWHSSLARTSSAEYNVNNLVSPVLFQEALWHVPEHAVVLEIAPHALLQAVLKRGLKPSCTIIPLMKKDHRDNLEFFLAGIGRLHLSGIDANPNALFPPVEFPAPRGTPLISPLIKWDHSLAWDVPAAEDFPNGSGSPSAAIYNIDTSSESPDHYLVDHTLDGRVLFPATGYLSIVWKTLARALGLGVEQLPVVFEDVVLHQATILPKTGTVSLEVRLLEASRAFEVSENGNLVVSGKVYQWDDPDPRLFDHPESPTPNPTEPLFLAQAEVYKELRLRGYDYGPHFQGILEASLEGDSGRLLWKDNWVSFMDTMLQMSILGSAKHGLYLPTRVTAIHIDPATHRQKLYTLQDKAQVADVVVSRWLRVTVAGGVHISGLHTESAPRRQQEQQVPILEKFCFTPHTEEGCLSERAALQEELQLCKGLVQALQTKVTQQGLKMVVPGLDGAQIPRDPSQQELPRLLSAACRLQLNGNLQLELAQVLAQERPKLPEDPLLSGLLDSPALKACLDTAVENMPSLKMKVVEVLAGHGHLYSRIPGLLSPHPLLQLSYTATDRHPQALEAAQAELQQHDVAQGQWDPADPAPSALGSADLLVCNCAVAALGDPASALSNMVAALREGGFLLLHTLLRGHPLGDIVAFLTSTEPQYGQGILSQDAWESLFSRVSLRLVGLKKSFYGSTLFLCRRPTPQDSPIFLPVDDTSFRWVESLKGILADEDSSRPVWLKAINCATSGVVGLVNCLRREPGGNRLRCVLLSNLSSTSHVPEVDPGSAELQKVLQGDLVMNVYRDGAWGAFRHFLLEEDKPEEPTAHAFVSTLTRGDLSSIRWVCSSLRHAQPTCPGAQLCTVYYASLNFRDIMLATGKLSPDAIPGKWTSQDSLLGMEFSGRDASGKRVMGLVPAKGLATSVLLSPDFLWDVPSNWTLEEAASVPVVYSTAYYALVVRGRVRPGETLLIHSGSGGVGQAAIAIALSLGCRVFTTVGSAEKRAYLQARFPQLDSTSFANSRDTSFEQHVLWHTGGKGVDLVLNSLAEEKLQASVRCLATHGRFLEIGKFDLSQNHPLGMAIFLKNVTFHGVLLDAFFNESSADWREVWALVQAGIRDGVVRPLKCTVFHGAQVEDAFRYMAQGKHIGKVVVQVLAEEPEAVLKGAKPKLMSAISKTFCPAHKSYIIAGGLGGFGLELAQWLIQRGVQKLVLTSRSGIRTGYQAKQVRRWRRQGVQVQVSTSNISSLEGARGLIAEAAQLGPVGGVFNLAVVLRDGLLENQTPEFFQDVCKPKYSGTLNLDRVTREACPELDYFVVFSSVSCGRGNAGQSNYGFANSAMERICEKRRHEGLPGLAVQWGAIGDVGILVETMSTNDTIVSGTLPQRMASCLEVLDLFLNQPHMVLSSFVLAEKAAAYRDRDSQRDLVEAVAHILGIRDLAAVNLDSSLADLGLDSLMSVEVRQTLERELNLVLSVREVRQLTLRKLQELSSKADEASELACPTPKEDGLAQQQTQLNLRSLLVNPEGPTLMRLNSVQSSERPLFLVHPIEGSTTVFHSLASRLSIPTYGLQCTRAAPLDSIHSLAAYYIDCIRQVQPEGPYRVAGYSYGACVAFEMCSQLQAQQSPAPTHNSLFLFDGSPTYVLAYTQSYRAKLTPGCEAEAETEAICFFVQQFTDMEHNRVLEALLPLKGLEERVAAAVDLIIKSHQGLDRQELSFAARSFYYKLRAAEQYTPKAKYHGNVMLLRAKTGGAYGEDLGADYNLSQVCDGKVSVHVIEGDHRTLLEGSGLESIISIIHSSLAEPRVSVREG
row,IC50 [nM],Compound
1,7.9,"Cn1ncc2c(=O)n(C[C@@H]3CCN(C(=O)C4CC4)C3)c(-c3ccc(-c4ccc5[nH]ccc5c4)cc3)nc21 [Example 1, 5-{[(3R)-1-(cyclopropylcarbonyl)-3-pyrrolidinyl]methyl}-6-[4-(1H-indol-5-yl)phenyl]-1-methyl-1,5-dihydro-4H-pyrazolo[3,4-d]pyrimidin-4-one]"
2,200,"COc1ccc(-c2ccc(-c3nc4ccccc4c(=O)n3C[C@@H]3CCN(C(=O)C4CC4)C3)cc2)c(Cl)c1 [Example 24, 2-[2-chloro-4(methoxy)-4-bipheny]-3-{[(3R)-1-(cyclopropylcarbonyl)-3-pyrrolidinyl]methyl}-4(3H)-quinazolinone]"

# Further lines, the compound ahead of its results:
row,Compound,IC50 [nM]
1,"Cc1nc2c(=O)n(C[C@@H]3CCN(C(=O)C4CC4)C3)c(-c3ccc(-c4ccc5[nH]ncc5c4)cc3)nc2o1 [Example 11, 6-{[(3R)-1-(cyclopropylcarbonyl)-3-pyrrolidinyl]methyl}-5-[4-(1H-indazol-5-yl)phenyl]-2-methyl[1,3]oxazolo[5,4-d]pyrimidin-7(6H)-one]",25.1
2,"Cc1cc(=O)nc(C[C@@H]2CCN(C(=O)C3CC3)C2)n1-c1ccc(-c2ccc3occc3c2)cc1 [Example 49, 1-[4-(1-benzofuran-5-yl)phenyl]-2-{[(3S)-1-(cyclopropylcarbonyl)-3-pyrrolidinyl]methyl}-6-methyl-4(1H)-pyrimidinone]",3160
3,Cc1cc(=O)n(C[C@@H]2CCN(C(=O)C3CC3)C2)c(-c2ccc(-c3ccc4[nH]ccc4c3)cc2)n1 [Example 26],3.16
4,"Cc1cc(=O)n(-c2ccc(-c3ccc4cc[nH]c4c3)cc2)c(C[C@@H]2CCN(C(=O)C3CC3)C2)n1 [Example 47, 2-{[(3S)-1-(cyclopropylcarbonyl)-3-pyrrolidinyl]methyl}-1-[4-(1H-indol-6-yl)phenyl]-6-methyl-4(3H)-pyrimidinone]",10

# From patent US20130303551A1, “PYRIMIDINONE DERIVATIVES AS FATTY ACID SYNTHASE INHIBITORS” (priority 2011, published 2013)
